The conditions of series [1]: normal healthy individuals, 10 mg oral dose of EZE; cited from earlier work.
The nature of series [2]: EZE-Gluc in plasma and urine in NASH compared with healthy or steatotic livers. The series is classed as in vivo. Conditions: NASH vs healthy or steatotic livers. As to the method: Furthermore, the inventive technical features of the present invention contributed to a surprising result. A surprising and unexpected result can occur when patients are administered EZE.
Series [3] can be described thus: Disposition of EZE and EZE-Gluc in plasma, bile and urine of control and MCD (NASH) rats, LC-MS/MS. Type of series: in vivo, rat. Conditions: NASH animal model (MCD rats) vs control, oral EZE. On the procedure:
Ezetimibe was orally administered to control and MCD rats. Blood and bile were collected and EZE and ZE-Guc were measured by LC-MS/MS. […] The solid and open arrows indicate where NASH caused an increase and decrease, respectively, in the amount of compound in the biological fluid indicated.
Ezetimibe was intravenously administered to control and MCD rats. Blood and bile were collected and EZE and EZE-Guc were measured by LC-MS/MS. […] The solid arrows indicate where NASH caused an increase in the amount of compound in the biological fluid indicated.

As to `O=C1[C@H](CC[C@H](O)c2ccc(F)cc2)[C@@H](c2ccc(O)cc2)N1c1ccc(F)cc1` [EZE, ezetimibe], in series [1], the “average peak blood concentration” value is listed as 4.5 ng/mL.

For the compound `O=C(O)[C@H]1O[C@@H](Oc2ccc([C@@H]3[C@@H](CC[C@H](O)c4ccc(F)cc4)C(=O)N3c3ccc(F)cc3)cc2)[C@H](O)[C@@H](O)[C@@H]1O` [EZE-Gluc, ezetimibe-glucuronide], in series [2], the “increase in plasma and urine” value is listed as at most 100 fold. Moreover, the “average peak blood concentration” value in series [1] is 92 ng/mL. In series [3], the biliary elimination result was “Decreased Biliary Elimination” and the plasma retention result is “Increased Plasma Retention”.

Source of the values: patent US20200393473A1, “EZETIMIBE METABOLITE AS A NON-INVASIVE BIOMARKER FOR NON-ALCOHOLIC STEATOHEPATITIS (NASH)” (ARIZONA BOARD OF REGENTS ON BEHALF OF THE UNIVERSITY OF …, priority 2018, published 2020).
